Measurements as given in ChEMBL document CHEMBL1275250, “In vitro activity of azithromycin against nontyphoidal Salmonella enterica” (2010).
Converted amounts (≈) assume the structure as drawn.

Tests used:
[1] = Antibacterial activity against Salmonella enterica serovar blockley harboring G235A mutation in rlpD gene by agar dilution method; format: functional, Salmonella enterica subsp. enterica serovar Blockley
[2] = Antibacterial activity against Salmonella enterica subsp. enterica serovar Saintpaul harboring G235A mutation in rlpD gene by agar dilution method; format: functional
Salmonella typhimurium [3] = experiment: Antibacterial activity against Salmonella enterica serovar Typhimurium harboring G235A mutation in rlpD gene by agar dilution method; format: functional, Salmonella enterica subsp. enterica serovar Typhimurium
[4] = Antibacterial activity against Salmonella enterica serovar montevideo harboring rlpD GC379T and rlpV G25A mutant gene by agar dilution method; format: functional, Salmonella enterica subsp. enterica serovar Montevideo
Salmonella enterica = experiment: Antibacterial activity against quinolone-resistant Salmonella enterica; format: functional
[5] = Antibacterial activity against quinolone-susceptible Salmonella enterica serovar newport s2099 by agar dilution method; format: functional, Salmonella enterica subsp. enterica serovar Newport
[6] = Antibacterial activity against quinolone-resistant Salmonella enterica serovar stanley s2018 by agar dilution method; format: functional, Salmonella enterica subsp. enterica serovar Stanley
[7] = Antibacterial activity against quinolone-susceptible Salmonella enterica serovar rissen s2021 by agar dilution method; format: functional, Salmonella enterica subsp. enterica serovar Rissen
[8] = Antibacterial activity against quinolone-resistant Salmonella enterica serovar stanley s2085 by agar dilution method; format: functional, Salmonella enterica subsp. enterica serovar Stanley
[9] = Antibacterial activity against quinolone-resistant Salmonella enterica serovar stanley s2086 by agar dilution method; format: functional, Salmonella enterica subsp. enterica serovar Stanley
[10] = Antibacterial activity against quinolone-susceptible Salmonella enterica serovar poona s2181 by agar dilution method; format: functional, Salmonella enterica subsp. enterica serovar Poona
Salmonella typhimurium [11] = experiment: Antibacterial activity against quinolone-susceptible Salmonella enterica serovar Typhimurium s2137 by agar dilution method; format: functional, Salmonella enterica subsp. enterica serovar Typhimurium
[12] = Antibacterial activity against quinolone-susceptible Salmonella enterica serovar virchow s2195 by agar dilution method; format: functional, Salmonella enterica subsp. enterica serovar Virchow
[13] = Antibacterial activity against quinolone-resistant Salmonella enterica serovar stanley s2236 by agar dilution method; format: functional, Salmonella enterica subsp. enterica serovar Stanley
[14] = Antibacterial activity against quinolone-resistant Salmonella enterica serovar stanley s2265 by agar dilution method; format: functional, Salmonella enterica subsp. enterica serovar Stanley
[15] = Antibacterial activity against quinolone-resistant Salmonella enterica serovar stanley s2280 by agar dilution method; format: functional, Salmonella enterica subsp. enterica serovar Stanley
Salmonella typhimurium [16] = experiment: Antibacterial activity against quinolone-susceptible Salmonella enterica serovar Typhimurium s2389 by agar dilution method; format: functional, Salmonella enterica subsp. enterica serovar Typhimurium
Salmonella typhimurium [17] = experiment: Antibacterial activity against quinolone-susceptible Salmonella enterica serovar Typhimurium s2391 by agar dilution method; format: functional, Salmonella enterica subsp. enterica serovar Typhimurium
[18] = Antibacterial activity against quinolone-susceptible Salmonella enterica serovar blockley s2439 by agar dilution method; format: functional, Salmonella enterica subsp. enterica serovar Blockley
[19] = Antibacterial activity against quinolone-susceptible Salmonella enterica serovar bredeney s2477 by agar dilution method; format: functional, Salmonella enterica subsp. enterica serovar Bredeney
[20] = Antibacterial activity against quinolone-susceptible Salmonella enterica serovar blockley s2608 by agar dilution method; format: functional, Salmonella enterica subsp. enterica serovar Blockley
[21] = Antibacterial activity against quinolone-susceptible Salmonella enterica serovar emek s2635 by agar dilution method; format: functional, Salmonella enterica subsp. enterica serovar Emek
[22] = Antibacterial activity against quinolone-susceptible Salmonella enterica serovar blockley s2768 by agar dilution method; format: functional, Salmonella enterica subsp. enterica serovar Blockley
[23] = Antibacterial activity against quinolone-susceptible Salmonella enterica serovar saintpaul s2829 by agar dilution method; format: functional, Salmonella enterica subsp. enterica serovar Saintpaul
[24] = Antibacterial activity against quinolone-susceptible Salmonella enterica serovar stanley s2868 by agar dilution method; format: functional, Salmonella enterica subsp. enterica serovar Stanley
[25] = Antibacterial activity against quinolone-susceptible Salmonella enterica serovar hvittingfoss s2948 by agar dilution method; format: functional, Salmonella enterica subsp. enterica serovar Hvittingfoss
[26] = Antibacterial activity against quinolone-susceptible Salmonella enterica serovar rissen s3141 by agar dilution method; format: functional, Salmonella enterica subsp. enterica serovar Rissen
Salmonella typhimurium [27] = experiment: Antibacterial activity against quinolone-susceptible Salmonella enterica serovar Typhimurium s3082 by agar dilution method; format: functional, Salmonella enterica subsp. enterica serovar Typhimurium
Salmonella enteritidis = experiment: Antibacterial activity against quinolone-susceptible Salmonella enterica serovar enteritidis s3139 by agar dilution method; format: functional, Salmonella enterica subsp. enterica serovar Enteritidis

SMILES: O=C(O)c1cn(C2CC2)c2cc(N3CCNCC3)c(F)cc2c1=O [CIPROFLOXACIN]
- MIC [1]: 0.25 µg/mL (≈ 0.754 µM)
- MIC [2]: 0.03 µg/mL (≈ 0.0905 µM)
- MIC (Salmonella typhimurium [3]): 0.06 µg/mL (≈ 0.181 µM)
- MIC [4]: 0.5 µg/mL (≈ 1.51 µM)
- MIC (Salmonella enterica): ≥ 0.125 µg/mL

SMILES: CC[C@H]1OC(=O)[C@H](C)[C@@H](O[C@H]2C[C@@](C)(OC)[C@@H](O)[C@H](C)O2)[C@H](C)[C@@H](O[C@@H]2O[C@H](C)C[C@H](N(C)C)[C@H]2O)[C@](C)(O)C[C@@H](C)CN(C)[C@H](C)[C@@H](O)[C@]1(C)O [AZITHROMYCIN]
- MIC [5]: 32 µg/mL (≈ 42.7 µM)
- MIC [6]: 64 µg/mL (≈ 85.4 µM)
- MIC [7]: > 128 µg/mL
- MIC [8]: 64 µg/mL (≈ 85.4 µM)
- MIC [9]: 64 µg/mL (≈ 85.4 µM)
- MIC [10]: 32 µg/mL (≈ 42.7 µM)
- MIC (Salmonella typhimurium [11]): 128 µg/mL (≈ 171 µM)
- MIC [12]: > 128 µg/mL
- MIC [13]: 32 µg/mL (≈ 42.7 µM)
- MIC [14]: 128 µg/mL (≈ 171 µM)
- MIC [15]: 64 µg/mL (≈ 85.4 µM)
- MIC (Salmonella typhimurium [16]): 128 µg/mL (≈ 171 µM)
- MIC (Salmonella typhimurium [17]): 128 µg/mL (≈ 171 µM)
- MIC [18]: 64 µg/mL (≈ 85.4 µM)
- MIC [19]: > 128 µg/mL
- MIC [20]: 64 µg/mL (≈ 85.4 µM)
- MIC [21]: 64 µg/mL (≈ 85.4 µM)
- MIC [22]: 128 µg/mL (≈ 171 µM)
- MIC [23]: 64 µg/mL (≈ 85.4 µM)
- MIC [24]: 128 µg/mL (≈ 171 µM)
- MIC [25]: 128 µg/mL (≈ 171 µM)
- MIC [26]: 64 µg/mL (≈ 85.4 µM)
- MIC (Salmonella typhimurium [27]): 128 µg/mL (≈ 171 µM)
- MIC (Salmonella enteritidis): 128 µg/mL (≈ 171 µM)
- MIC [1]: 64 µg/mL (≈ 85.4 µM)
- MIC [2]: 64 µg/mL (≈ 85.4 µM)
- MIC (Salmonella typhimurium [3]): 128 µg/mL (≈ 171 µM)
- MIC [4]: 4 µg/mL (≈ 5.34 µM)
- MIC (Salmonella enterica): ≥ 32 µg/mL

SMILES: CC[C@H]1OC(=O)[C@H](C)[C@@H](O[C@H]2C[C@@](C)(OC)[C@@H](O)[C@H](C)O2)[C@H](C)[C@@H](O[C@@H]2O[C@H](C)C[C@H](N(C)C)[C@H]2O)[C@](C)(O)C[C@@H](C)C(=O)[C@H](C)[C@@H](O)[C@]1(C)O [ERYTHROMYCIN]
- MIC [1]: > 128 µg/mL
- MIC [2]: > 128 µg/mL
- MIC (Salmonella typhimurium [3]): > 64 µg/mL
- MIC [4]: > 64 µg/mL

SMILES: CCn1cc(C(=O)O)c(=O)c2ccc(C)nc21 [NALIDIXIC ACID]
- MIC [1]: > 512 µg/mL
- MIC [2]: 16 µg/mL (≈ 68.9 µM)
- MIC (Salmonella typhimurium [3]): 16 µg/mL (≈ 68.9 µM)
- MIC [4]: 16 µg/mL (≈ 68.9 µM)
- MIC (Salmonella enterica): ≥ 32 µg/mL

SMILES: CC[C@H]1OC(=O)[C@H](C)C(=O)[C@H](C)[C@@H](O[C@@H]2O[C@H](C)C[C@H](N(C)C)[C@H]2O)[C@](C)(OC)C[C@@H](C)C(=O)[C@H](C)[C@H]2N(CCCCn3cnc(-c4cccnc4)c3)C(=O)O[C@]12C [TELITHROMYCIN]
- MIC [1]: > 128 µg/mL
- MIC [2]: > 128 µg/mL
- MIC (Salmonella typhimurium [3]): > 128 µg/mL
- MIC [4]: 4 µg/mL (≈ 4.93 µM)
